From PMC9779714, “Enhanced Therapeutic Effect of Optimized Melittin-dKLA, a Peptide Agent Targeting M2-like Tumor-Associated Macrophages in Triple-Negative Breast Cancer” (International Journal of Molecular Sciences, 2022)

Assays:
red blood cells = experiment: Hemolysis assay on mouse red blood cells; type: cell-based, BALB/c mouse; details: mouse red blood cells in PBS, peptides 1-40 μM, 4 h at 37 °C, OD 450 nm of supernatant, 2% Triton X-100 positive control, mean of n = 3
Procedure: Melittin has been well-documented to have strong hemolytic effects. To diminish such adverse effects, several truncated melittin were synthesized and analyzed in vitro (Figure 2A). Mouse blood cells were treated with varying concentrations of peptides for 4 h, and the optical density was measured using a microplate reader.
Figure 2 Melittin fragments have fewer hemolytic effects than melittin. (A) Amino acid sequence of melittin and melittin-truncated peptide. (B) Hemolysis of red blood cells treated with FITC-conjugated melittin or FITC-conjugated melittin fragments at concentrations ranging from 1 μM to 40 μM and incubated at 37 °C for 4 h. […] The optical density of hemoglobin released supernatant was measured at 450 nm. […]
Figure 4 Characterization of the optimized hybrid peptide drug, PEG-melittin-dKLA 8-26. […] The optical density was measured at 490 nm. […] The optical density of hemoglobin released in the supernatant was measured at 450 nm. […]
Blood was collected from each BALB/c mouse. […] The optical density of the samples was measured at 450 nm using a microplate reader (Molecular Devices). The percentage of hemolysis was calculated using the following equation: hemolysis (%) = (OD450 nm sample − OD450 nm negative control)/(OD450 nm positive control − OD450 nm negative control) × 100%. All data are expressed as the mean ± SEM of three independent experiments.

[1] = system: THP-1-derived M2 macrophages; experiment: Flow cytometry binding of FITC-conjugated peptides to M2 macrophages; type: cell-based, human; details: 100 nM FITC-conjugated peptides, 1 h, percentage of FITC-positive cells, n = 3
Procedure: To address the binding ability of truncated melittin peptides to M2 macrophages, fluorescein isothiocyanate (FITC)-conjugated peptides were synthesized and incubated with M2 macrophages, and the percentage of FITC-positive cells was measured using flow cytometry. […] Next, to confirm and compare the binding capabilities of melittin and melittin 8-26 to different macrophage lineages, including M0, M1, and M2, FITC-conjugated peptides were tested on each macrophage phenotype, and their binding capabilities were measured by flow cytometry. […]
Figure 3 Binding of melittin fragments to the THP-1-derived M2 macrophages. […] (A) Melittin or melittin fragment affinity for M2 macrophages was measured using flow cytometry. […] (B) The affinity of melittin or melittin 8-26 for macrophages was detected by flow cytometry. TEXT PRINTED IN THE PICTURE: (B) Melittin: M0: 21.78; M1: 17.22; M2: 46.02 | (B) Melittin 8-26: M0: 26.8; M1: 14.74; M2: 34.66 DOUBTS OF THE COPYIST ABOUT THIS PICTURE: Panel B: the tiny quadrant labels (UL 0.00, UR 0.00, and LL values such as about 78.22, 53.98, 73.20, 85.26, 65.34) are too small, blurred or partly hidden by the dots to read with certainty, so they are left out. / Panel B: no measure or unit is printed with the large quadrant numbers. […]

Substance: melittin
- concentration at which hemolysis was observed (red blood cells): above 5 μM
- binding affinity to M2 macrophages (in words) [1]: highest binding affinity
